Measurements as given in ChEMBL document CHEMBL4177700, “Scutellarin inhibits Hela cell growth and glycolysis by inhibiting the activity of pyruvate kinase M2” (Bioorg Med Chem Lett, 2017).
Active and inactive are the calls of the source. The rule behind the calls is not given here.

What was measured:
[1] = Stability in culture medium at 200 uM after 3 hrs by HPLC analysis (reference value: 100%); format: physicochemical; conditions: read-out: Stability
[2] = Stability in culture medium at 200 uM after 6 hrs by HPLC analysis (reference value: 100%); format: physicochemical; conditions: read-out: Stability
[3] = Stability in culture medium at 200 uM after 12 hrs by HPLC analysis (reference value: 100%); format: physicochemical; conditions: read-out: Stability
[4] = Stability in culture medium at 200 uM after 24 hrs by HPLC analysis (reference value: 100%); format: physicochemical; conditions: read-out: Stability
[5] = Stability in human HeLa cells at 200 uM after 3 hrs by HPLC analysis (reference value: 100%); format: ADME, cell-based; conditions: read-out: Stability
[6] = Stability in human HeLa cells at 200 uM after 6 hrs by HPLC analysis (reference value: 100%); format: ADME, cell-based; conditions: read-out: Stability
[7] = Stability in human HeLa cells at 200 uM after 12 hrs by HPLC analysis (reference value: 100%); format: ADME, cell-based; conditions: read-out: Stability
[8] = Stability in human HeLa cells at 200 uM after 24 hrs by HPLC analysis (reference value: 100%); format: ADME, cell-based; conditions: read-out: Stability
HeLa [9] = assay: Antiproliferative activity against human HeLa cells at 50 to 400 uM after 48 hrs by MTS assay; format: functional, cell-based
Pyruvate kinase PKM [10] = molecular target: T1, Pyruvate kinase PKM (Homo sapiens, UniProt P14618); assay: Binding affinity to PKM2 in human HeLa cell lysates at 200 uM after 6 hrs by silver staining based LC-MS/MS pull down analysis
Target sequence in this assay (P14618 2-531 limits assumed): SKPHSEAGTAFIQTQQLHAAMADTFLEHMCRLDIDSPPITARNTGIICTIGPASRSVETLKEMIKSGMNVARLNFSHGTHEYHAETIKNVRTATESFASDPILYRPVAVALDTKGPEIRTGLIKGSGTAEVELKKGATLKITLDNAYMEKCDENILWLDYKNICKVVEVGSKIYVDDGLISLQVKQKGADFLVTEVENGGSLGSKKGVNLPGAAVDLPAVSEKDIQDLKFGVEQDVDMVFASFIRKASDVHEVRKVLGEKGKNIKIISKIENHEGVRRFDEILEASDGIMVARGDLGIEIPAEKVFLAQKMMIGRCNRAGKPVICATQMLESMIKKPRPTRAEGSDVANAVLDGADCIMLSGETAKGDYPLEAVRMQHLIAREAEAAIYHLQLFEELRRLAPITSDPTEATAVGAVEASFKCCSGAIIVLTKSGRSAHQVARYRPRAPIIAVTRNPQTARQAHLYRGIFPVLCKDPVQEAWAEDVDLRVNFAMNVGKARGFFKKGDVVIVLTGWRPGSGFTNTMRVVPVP

HeLa [11] = assay: Cell cycle arrest in human HeLa cells assessed as accumulation at G1 phase at 200 uM after 48 hrs by […]propidium iodide staining based flow cytometry (reference value: 66.69%); format: functional
HeLa [12] = assay: Cell cycle arrest in human HeLa cells assessed as accumulation at G2 phase at 200 uM after 48 hrs by […]propidium iodide staining based flow cytometry (reference value: 7.91%); format: functional
HeLa [13] = assay: Cell cycle arrest in human HeLa cells assessed as accumulation at S phase at 200 uM after 48 hrs by […]propidium iodide staining based flow cytometry (reference value: 25.41%); format: functional
HeLa [14] = assay: Cell cycle arrest in human HeLa cells assessed as accumulation at G1 phase at 400 uM after 48 hrs by […]propidium iodide staining based flow cytometry (reference value: 66.69%); format: functional
HeLa [15] = assay: Cell cycle arrest in human HeLa cells assessed as accumulation at G2 phase at 400 uM after 48 hrs by […]propidium iodide staining based flow cytometry (reference value: 7.91%); format: functional
HeLa [16] = assay: Cell cycle arrest in human HeLa cells assessed as accumulation at S phase at 400 uM after 48 hrs by […]propidium iodide staining based flow cytometry (reference value: 25.41%); format: functional
HeLa [17] = assay: Induction of apoptosis in human HeLa cells at 200 to 400 uM after 48 hrs by Annexin V/propidium iodide staining based flow cytometry; format: functional, cell-based
Pyruvate kinase PKM [18] = molecular target: T1, Pyruvate kinase PKM; assay: Inhibition of recombinant human N-terminal His6/SUMO-tagged PKM1 expressed in Escherichia coli BL21 using PEP as substrate incubated for 30 mins in presence of ADP by spectrophotometric based LDH enzyme coupled assay
Target sequence in this assay (P14618 whole entry): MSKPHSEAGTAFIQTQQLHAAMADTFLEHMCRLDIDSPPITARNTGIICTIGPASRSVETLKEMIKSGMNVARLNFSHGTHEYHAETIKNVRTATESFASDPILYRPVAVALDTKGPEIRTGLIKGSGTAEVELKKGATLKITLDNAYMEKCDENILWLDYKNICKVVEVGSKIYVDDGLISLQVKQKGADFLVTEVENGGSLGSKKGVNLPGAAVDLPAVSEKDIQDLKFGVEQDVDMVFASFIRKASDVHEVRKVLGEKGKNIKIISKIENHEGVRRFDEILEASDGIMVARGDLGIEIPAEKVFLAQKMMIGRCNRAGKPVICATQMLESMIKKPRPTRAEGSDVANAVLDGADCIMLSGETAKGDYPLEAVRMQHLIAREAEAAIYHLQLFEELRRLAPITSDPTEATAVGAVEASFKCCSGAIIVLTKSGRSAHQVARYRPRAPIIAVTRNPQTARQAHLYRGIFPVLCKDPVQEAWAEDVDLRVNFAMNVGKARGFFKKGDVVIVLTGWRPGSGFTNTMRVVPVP

Pyruvate kinase PKM [19] = molecular target: T1, Pyruvate kinase PKM; assay: Inhibition of recombinant human N-terminal His6/SUMO-tagged PKM2 expressed in Escherichia coli BL21 using PEP as substrate incubated for 30 mins in presence of ADP by spectrophotometric based LDH enzyme coupled assay
Target sequence in this assay (P14618 whole entry): as above

Homo sapiens = species on record: Homo sapiens; assay: Selectivity ratio of IC50 for recombinant human N-terminal His6/SUMO-tagged PKM1 expressed in Escherichia coli BL21 to IC50 for recombinant human N-terminal His6/SUMO-tagged PKM2 expressed in Escherichia coli BL21
L-lactate dehydrogenase = L-lactate dehydrogenase (Homo sapiens, UniProt V9HWB9); assay: Inhibition of LDH (unknown origin) assessed as reduction in NADH oxidation at 200 uM after 30 mins; conditions: 0.5 h
Pyruvate kinase PKM [20] = molecular target: T1, Pyruvate kinase PKM; assay: Inhibition of PKM2 in human HeLa cells assessed as reduction in cellular glycolytic rate after 6 hrs; format: cell-based
Target sequence in this assay (P14618 2-531 limits assumed): as the sequence (P14618 2-531 limits assumed) above

HeLa [21] = assay: Effect on Glut1 expression level in human HeLa cells at 100 to 400 uM after 6 hrs by Western blot analysis; format: functional, cell-based
HeLa [22] = assay: Activation of MEK/ERK/PIN1 pathway in human HeLa cells assessed as increase in MEK protein expression at 100 uM after 2 to 8 hrs by Western blot analysis; format: cell-based
HeLa [23] = assay: Down regulation of CDK1 expression level in human HeLa cells at 200 to 400 uM by Western blot analysis; format: functional, cell-based
HeLa [24] = assay: Down regulation of cyclin B expression level in human HeLa cells at 200 to 400 uM by Western blot analysis; format: functional, cell-based
HeLa [25] = assay: Induction of apoptosis in human HeLa cells assessed as increase in Bax/Bcl-2 expression level at 100 to 400 uM by Western blot analysis; format: functional, cell-based
HeLa [26] = assay: Induction of apoptosis in human HeLa cells assessed as increase in cleaved caspase 3 expression level at 100 to 400 uM by Western blot analysis; format: functional, cell-based
HeLa [27] = assay: Activation of MEK/ERK/PIN1 pathway in human HeLa cells assessed as increase in phosphorylated ERK1/2 expression at 100 uM after 2 to 8 hrs by Western blot analysis; format: cell-based
HeLa [28] = assay: Activation of MEK/ERK/PIN1 pathway in human HeLa cells assessed as increase in PIN1 expression at 100 uM after 2 to 8 hrs by Western blot analysis; format: cell-based
Pyruvate kinase PKM [29] = molecular target: T1, Pyruvate kinase PKM; assay: Binding affinity to PKM2 in human HeLa cells at 100 uM after 6 hrs by co-immunoprecipitation based Western blot analysis; format: cell-based
Target sequence in this assay (P14618 2-531 limits assumed): as above

Pyruvate kinase PKM [30] = molecular target: T1, Pyruvate kinase PKM; assay: Binding affinity to PKM2 in human MCF7 cells at 100 uM after 6 hrs by co-immunoprecipitation based Western blot analysis; format: cell-based
Target sequence in this assay (P14618 2-531 limits assumed): as above

Pyruvate kinase PKM [31] = molecular target: T1, Pyruvate kinase PKM; assay: Binding affinity to PKM2 in human A549 cells at 100 uM after 6 hrs by co-immunoprecipitation based Western blot analysis; format: cell-based
Target sequence in this assay (P14618 2-531 limits assumed): as above

Pyruvate kinase PKM [32] = molecular target: T1, Pyruvate kinase PKM; assay: Binding affinity to PKM2 in human HeLa cells at 100 uM after 6 hrs in presence of biotin by Western blot analysis; format: cell-based
Target sequence in this assay (P14618 2-531 limits assumed): as above

With O=C1N[C@H]2[C@H](CS[C@H]2CCCCC(=O)Oc2ccc(-c3cc(=O)c4c(O)c(O)c(O)cc4o3)cc2)N1 the remaining at 3 h, 200 µM [1] was 98%, the remaining at 6 h, 200 µM [2] was 97% and the remaining at 12 h, 200 µM [3] was 50%. The remaining at 24 h, 200 µM [4] was 49%, the remaining at 3 h, 200 µM [5] was 99% and the remaining at 6 h, 200 µM [6] was 85%. The remaining at 12 h, 200 µM [7] was 37%, the remaining at 24 h, 200 µM [8] was 37% and the Activity (HeLa [9]) was “Active”. The Activity (Pyruvate kinase PKM [10]) was “Active”.

In the case of O=c1cc(-c2ccc(O)cc2)oc2cc(O)c(O)c(O)c12 [SCUTELLAREIN], the Activity (HeLa [9]) is reported as “Active”, the Activity (HeLa [11]) is reported as 62.11% and the Activity (HeLa [12]) is reported as 12.55%. The Activity (HeLa [13]) was 25.34%, the Activity (HeLa [14]) was 51.91% and the Activity (HeLa [15]) was 16.19%. The Activity (HeLa [16]) was 31.89%, the Activity (HeLa [17]) was “Active” and the IC50 (Pyruvate kinase PKM [18]) was 100 µM. For the same compound, the IC50 (Pyruvate kinase PKM [19]) was 12.5 µM, the Ratio IC50 (Homo sapiens) was 8 and the “inhibition (INH)” value (L-lactate dehydrogenase) was “Not Active”. For the same compound, the inhibition (Pyruvate kinase PKM [20]) was “Dose-dependent effect”, the Activity (HeLa [21]) was “inactive” and the Activity (HeLa [22]) was “Active”. The Activity (HeLa [23]) was “Active”, the Activity (HeLa [24]) was “Active” and the Activity (HeLa [25]) was “Active”. For the same compound, the Activity (HeLa [26]) was “Active”, the Activity (HeLa [27]) was “Active” and the Activity (HeLa [28]) was “Active”.

In the case of O=C(O)[C@H]1O[C@@H](Oc2cc3oc(-c4ccc(O)cc4)cc(=O)c3c(O)c2O)[C@H](O)[C@@H](O)[C@@H]1O, the inhibition (Pyruvate kinase PKM [20]) is reported as “Dose-dependent effect”.

O=C(CCCC[C@@H]1SC[C@@H]2NC(=O)N[C@@H]21)NCCOCCOCCNC(=O)COc1ccc(-c2cc(=O)c3c(O)c(O)c(O)cc3o2)cc1 showed a remaining at 3 h, 200 µM [1] of 89%, a remaining at 6 h, 200 µM [2] of 87% and a remaining at 12 h, 200 µM [3] of 54%. It also gave a remaining at 24 h, 200 µM [4] of 52%, a remaining at 3 h, 200 µM [5] of 98% and a remaining at 6 h, 200 µM [6] of 93%. For the same compound, the remaining at 12 h, 200 µM [7] was 36%, the remaining at 24 h, 200 µM [8] was 29% and the Activity (HeLa [9]) was “Active”. For the same compound, the Activity (HeLa [11]) was 63.05%, the Activity (HeLa [12]) was 11.51% and the Activity (HeLa [13]) was 25.44%. For the same compound, the Activity (HeLa [14]) was 47.56%, the Activity (HeLa [15]) was 15.52% and the Activity (HeLa [16]) was 36.92%. For the same compound, the Activity (HeLa [17]) was “Active”, the Activity (Pyruvate kinase PKM [10]) was “Active” and the Activity (Pyruvate kinase PKM [29]) was “Active”. The Activity (Pyruvate kinase PKM [30]) was “Active”, the Activity (Pyruvate kinase PKM [31]) was “Active” and the Activity (Pyruvate kinase PKM [32]) was “inactive”.

In the case of Cc1ccc(C)n1-c1ccc(O)c(C(=O)O)c1, the IC50 (Pyruvate kinase PKM [18]) is reported as 100 µM, the IC50 (Pyruvate kinase PKM [19]) is reported as 12.5 µM and the Ratio IC50 (Homo sapiens) is reported as 8.

With CC(C)=CC[C@@H](O)C1=CC(=O)c2c(O)ccc(O)c2C1=O [SHIKONIN] the IC50 (Pyruvate kinase PKM [18]) was 10 µM, the IC50 (Pyruvate kinase PKM [19]) was 0.5 µM and the Ratio IC50 (Homo sapiens) was 20.

With NCCOCCOCCNC(=O)CCCC[C@@H]1SC[C@@H]2NC(=O)N[C@@H]21 the Activity (Pyruvate kinase PKM [10]) was “Active”.
